Source: patent US11058688B2, “Imidazopiperazine inhibitors of transcription activating proteins” (Board of Regents, The University of Texas System, priority 2018, dated 2021)

Columns and labels:
BRD4(49-170) bromodomain = BRD4(49-170) bromodomain (Homo sapiens (Human), UniProt O60885); test: BRD4 AlphaScreen Assay; conditions: binding to biotin-H4(1-21) Ac-K5/8/12/16 peptide
Method: (§1) Specific binding of the CBP or BRD4 bromodomain to the acetylated peptide derived from the H4 histone substrate (tetra acetylated H4(1-21) Ac-K5/8/12/16) was measured in absence or presence of inhibitors.
(§2) The standard dose response curves were fitted by Genedata Screener software using the variable-slope model: Signal=Signalnegative control+(SignalDMSO control−Signalnegative control)/(1+(IC50/Dose)^Hill slope).
(§3) Only Signal and Dose in the equation were treated as known values.

[1] = target: GST-CBP(1081-1197) bromodomain (Homo sapiens (Human), UniProt Q92793); test: CBP AlphaScreen Assay; conditions: binding to biotin-H4(1-21) Ac-K5/8/12/16 peptide
Chain of GST-CBP(1081-1197) bromodomain (Q92793 1081-1197): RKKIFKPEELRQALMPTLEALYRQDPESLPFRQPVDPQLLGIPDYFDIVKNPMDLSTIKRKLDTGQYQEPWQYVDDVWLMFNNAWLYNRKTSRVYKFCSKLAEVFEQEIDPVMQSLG
Method: as §1, §2, §3

Which IC50 (BRD4(49-170) bromodomain) does the source give for CNC(=O)N1CCn2c(C3CC3)nc(-c3cccc4nc(-c5cnc(C)s5)c(C#N)cc34)c2C1 [Example 100, 1-(3-cyano-2-(2-methylthiazol-5-yl)quinolin-5-yl)-3-cyclopropyl-N-methyl-5,6-dihydroimidazo[1,5-a]pyrazine-7(8H)-carboxamide] here?
The IC50 was 7950 nM.

What about the IC50 [1] of the same molecule?
Its IC50 is 4 nM.

Which IC50 (BRD4(49-170) bromodomain) does the source give for CC(=O)N1CCn2c(C3CC3)nc(N3CCCc4cc(-c5cnn(CCO)c5)ccc43)c2C1 [Example 121, 1-(3-cyclopropyl-1-(6-(1-(2-hydroxyethyl)-1H-pyrazol-4-yl)-3,4-dihydroquinolin-1(2H)-yl)-5,6-dihydroimidazo[1,5-a]pyrazin-7(8H)-yl)ethan-1-one] here?
The IC50 was greater than 25000 nM.

What about the IC50 [1] of the same molecule?
The IC50 was 576 nM.

Which IC50 (BRD4(49-170) bromodomain) does the source give for CC(=O)N1CCn2c(C3CCOCC3)nc(-c3ccc4c(c3)c(-c3cnn(C)c3)nn4C)c2C1 [Example 104, 1-(1-(1-methyl-3-(1-methyl-1H-pyrazol-4-yl)-1H-indazol-5-yl)-3-(tetrahydro-2H-pyran-4-yl)-5,6-dihydroimidazo[1,5-a]pyrazin-7(8H)-yl)ethan-1-one] here?
Its IC50 is 3730 nM.

And the IC50 [1]?
The IC50 was 107 nM.

How did the IC50 (BRD4(49-170) bromodomain) turn out when CC(=O)N1CCn2c(C3CC3)nc(N3CCCc4cc(-c5ccncc5)ccc43)c2C1 [Example 114, 1-(3-cyclopropyl-1-(6-(pyridin-4-yl)-3,4-dihydroquinolin-1(2H)-yl)-5,6-dihydroimidazo[1,5-a]pyrazin-7(8H)-yl)ethan-1-one] was run?
The IC50 was greater than 25000 nM.

What about the IC50 [1] of the same molecule?
Its IC50 is 615 nM.

What does the source list for CNC(=O)N1CCn2c(C3CC3)nc(-c3cccc4cc(N5CCOCC5)ncc34)c2C1 [Example 18, 3-cyclopropyl-N-methyl-1-(3-morpholinoisoquinolin-8-yl)-5,6-dihydroimidazo[1,5-a]pyrazine-7(8H)-carboxamide]?
IC50 (BRD4(49-170) bromodomain): > 25000 nM; IC50 [1]: 50 nM

How did the IC50 (BRD4(49-170) bromodomain) turn out when CNC(=O)N1CCn2c(C3CC3)nc(-c3cccc4nc(N5CCOCC5)c(C#N)cc34)c2C1 [Example 24, 1-(3-Cyano-2-morpholinoquinolin-5-yl)-3-cyclopropyl-N-methyl-5,6-dihydroimidazo[1,5-a]pyrazine-7(8H)-carboxamide] was run?
Its IC50 is 9110 nM.

What about the IC50 [1] of the same molecule?
The IC50 was 6 nM.

What does the source list for CNC(=O)N1CCn2c(C3CCOCC3)nc(-c3cccc4nc(-c5cnn(C)c5)c(C(F)(F)F)cc34)c2C1 [Example 65, N-methyl-1-(2-(1-methyl-1H-pyrazol-4-yl)-3-(trifluoromethyl)quinolin-5-yl)-3-(tetrahydro-2H-pyran-4-yl)-5,6-dihydroimidazo[1,5-a]pyrazine-7(8H)-carboxamide]?
IC50 (BRD4(49-170) bromodomain): 13700 nM; IC50 [1]: 4 nM

What does the source list for CNC(=O)N1CCn2c(C3CCC(F)(F)CC3)nc(-c3cccc4nc(-c5cnn(C)c5)c(C(F)F)cc34)c2C1 [Example 59, 3-(4,4-difluorocyclohexyl)-1-(3-(difluoromethyl)-2-(1-methyl-1H-pyrazol-4-yl)quinolin-5-yl)-N-methyl-5,6-dihydroimidazo[1,5-a]pyrazine-7(8H)-carboxamide]?
IC50 (BRD4(49-170) bromodomain): 19000 nM; IC50 [1]: 5 nM

What does the source list for CNC(=O)N1CCn2c(C3CC(F)(F)C3)nc(-c3cccc4nc(-c5cnn(C)c5)c(C#N)cc34)c2C1 [Example 67, 1-(3-cyano-2-(1-methyl-1H-pyrazol-4-yl)quinolin-5-yl)-3-(3,3-difluorocyclobutyl)-N-methyl-5,6-dihydroimidazo[1,5-a]pyrazine-7(8H)-carboxamide]?
IC50 (BRD4(49-170) bromodomain): > 25000 nM; IC50 [1]: 36 nM

For CNC(=O)N1CCn2c(C3CC3)nc(-c3cccc4nc(-c5cnn(C)c5)c(C#N)cc34)c2C1 [Example 19, 1-(3-Cyano-2-(1-methyl-1H-pyrazol-4-yl)quinolin-5-yl)-3-cyclopropyl-N-methyl-5,6-dihydroimidazo[1,5-a]pyrazine-7(8H)-carboxamide], which IC50 (BRD4(49-170) bromodomain) is on record?
Its IC50 is greater than 25000 nM.

And the IC50 [1]?
The IC50 was 5 nM.

For CC(=O)N1CCn2c(C3CC3)nc(N3CCCc4cc(-c5ccc(=O)n(C)c5)ccc43)c2C1 [Example 113, 5-(1-(7-acetyl-3-cyclopropyl-5,6,7,8-tetrahydroimidazo[1,5-a]pyrazin-1-yl)-1,2,3,4-tetrahydroquinolin-6-yl)-1-methylpyridin-2(1H)-one], which IC50 (BRD4(49-170) bromodomain) is on record?
The IC50 was 3460 nM.

And the IC50 [1]?
The IC50 was 193 nM.

With CNC(=O)c1ccc(-c2nc3cccc(-c4nc(C5CC5)n5c4CN(C(=O)NC)CC5)c3cc2C#N)cn1 [Example 99, 1-(3-cyano-2-(6-(methylcarbamoyl)pyridin-3-yl)quinolin-5-yl)-3-cyclopropyl-N-methyl-5,6-dihydroimidazo[1,5-a]pyrazine-7(8H)-carboxamide] as the molecule, how does the IC50 (BRD4(49-170) bromodomain) read?
The IC50 was 8710 nM.

What about the IC50 [1] of the same molecule?
Its IC50 is 11 nM.

For CNC(=O)N1CCn2c(C3CC3)nc(-c3ccnc4cc(-c5cnn(C)c5)c(OC(F)(F)F)cc34)c2C1 [Example 2, 3-cyclopropyl-N-methyl-1-(7-(1-methyl-1H-pyrazol-4-yl)-6-(trifluoromethoxy)quinolin-4-yl)-5,6-dihydroimidazo[1,5-a]pyrazine-7(8H)-carboxamide], which IC50 (BRD4(49-170) bromodomain) is on record?
Its IC50 is 8900 nM.

And the IC50 [1]?
The IC50 was 3 nM.

What does the source list for CNC(=O)N1CCn2c(C3CC(F)(F)C3)nc(-c3cccc4nc(-c5cnn(C)c5)c(C(F)F)cc34)c2C1 [Example 58, 3-(3,3-difluorocyclobutyl)-1-(3-(difluoromethyl)-2-(1-methyl-1H-pyrazol-4-yl)quinolin-5-yl)-N-methyl-5,6-dihydroimidazo[1,5-a]pyrazine-7(8H)-carboxamide]?
IC50 (BRD4(49-170) bromodomain): > 10000 nM; IC50 [1]: 49 nM

Which IC50 (BRD4(49-170) bromodomain) does the source give for CNC(=O)N1CCn2c(C3CN(C(C)=O)C3)nc(-c3ccc4c(c3)c(-c3cnn(C)c3)nn4C)c2C1 [Example 9, 3-(1-Acetylazetidin-3-yl)-N-methyl-1-(1-methyl-3-(1-methyl-1H-pyrazol-4-yl)-1H-indazol-5-yl)-5,6-dihydroimidazo[1,5-a]pyrazine-7(8H)-carboxamide] here?
Its IC50 is greater than 10000 nM.

What about the IC50 [1] of the same molecule?
Its IC50 is 63 nM.

What does the source list for CC(=O)N1CCn2c(Cl)nc(-c3ccc4c(c3)c(-c3cnn(C)c3)nn4C)c2C1 [Example 32, 1-(3-Chloro-1-(1-methyl-3-(1-methyl-1H-pyrazol-4-yl)-1H-indazol-5-yl)-5,6-dihydroimidazo[1,5-a]pyrazin-7(8H)-yl)ethan-1-one]?
IC50 (BRD4(49-170) bromodomain): > 10000 nM; IC50 [1]: 439 nM

CC(=O)N1CCn2c(C3CC3)nc(N3CCCc4cc(-c5cnn(CCN6CCOCC6)c5)ccc43)c2C1 [Example 122, 1-(3-cyclopropyl-1-(6-(1-(2-morpholinoethyl)-1H-pyrazol-4-yl)-3,4-dihydroquinolin-1(2H)-yl)-5,6-dihydroimidazo[1,5-a]pyrazin-7(8H)-yl)ethan-1-one] was tested. Which IC50 (BRD4(49-170) bromodomain) did it give?
The IC50 was greater than 25000 nM.

And the IC50 [1]?
The IC50 was 500 nM.

How did the IC50 (BRD4(49-170) bromodomain) turn out when CNC(=O)N1CCn2c(C3CC3)nc(-c3cccc4nc(-c5cnn(C)c5)ncc34)c2C1 [Example 37, 3-Cyclopropyl-N-methyl-1-(2-(1-methyl-1H-pyrazol-4-yl)quinazolin-5-yl)-5,6-dihydroimidazo[1,5-a]pyrazine-7(8H)-carboxamide] was run?
Its IC50 is 14300 nM.

And the IC50 [1]?
Its IC50 is 16 nM.

COC(=O)N1CCn2c(C3CCOC3)nc(-c3ccc4c(c3)c(-c3cnn(C)c3)nn4C)c2C1 (centres unmarked) [Example 5, Methyl 1-(1-methyl-3-(1-methyl-1H-pyrazol-4-yl)-1H-indazol-5-yl)-3-(tetrahydrofuran-3-yl)-5,6-dihydroimidazo[1,5-a]pyrazine-7(8H)-carboxylate] was tested. Which IC50 (BRD4(49-170) bromodomain) did it give?
The IC50 was 13900 nM.

With CC(=O)N1CCn2c(C3CN(C(C)=O)C3)nc(-c3ccc4c(c3)c(-c3cnn(C)c3)nn4C)c2C1 [Example 12, 1-(3-(7-Acetyl-1-(1-methyl-3-(1-methyl-1H-pyrazol-4-yl)-1H-indazol-5-yl)-5,6,7,8-tetrahydroimidazo[1,5-a]pyrazin-3-yl)azetidin-1-yl)ethan-1-one] as the molecule, how does the IC50 (BRD4(49-170) bromodomain) read?
Its IC50 is greater than 10000 nM.
